Measurements as given in patent US20130123107A1, “Use of Adjuvants to Improve Abscisic Acid Performance” (Valent BioSciences Corporation, priority 2007, published 2013).
Where a name gives a salt, the structure may show the parent alone.

Assays:
[1] = tested on: tomato leaf transpiration; assay: tomato leaf transpiration inhibition bioassay; format: in vivo, Tomato (variety: Rutgers)
Description: The compositions of the present invention improve ABA effectiveness by incorporating a surfactant, and optionally a nitrogen-containing fertilizer together with an effective amount of the plant growth regulator abscisic acid (S-ABA; ABA; S-(+)-abscisic acid; +-ABA, (+)-(S)-cis, trans-abscisic acid, (+)-(S)-cis,trans-ABA; S-ABA; (S)-5-(1-hydroxy-2,6,6,-trimethyl-4-oxo-2-cyclohexen-1-yl)-3-methyl-(2Z,4E)-pentadienoic acid; CAS registry no, [21293-29-8]). ABA effectiveness may be measured experimentally by quantifying the inhibition of transpiration in tomato leaves. This is a reliable laboratory bioassay of the level of ABA activity.
Preparation of plant specimens for use in the treatment studies of the examples described was carried out as follows. Tomato (variety: Rutgers) seeds were sown in an 18-cell flat filled with Promix PGX (available from Premier Horticulture Inc. Quakertown, Pa.) and grown for 3 weeks to allow for germination and initial growth. Plants were then transplanted into pots (18 cm in diameter and 18 cm in height), filled with Promix BX (available from Premier Horticulture Inc. Quakertown, Pa.), and grown for one or two more weeks before treatment, depending on temperature and available light. Plants received daily irrigation and weekly fertilizer (1 g/L all purpose fertilizer 20-20-20, available from The Scotts Company, Marysville, Ohio).
All treatment solutions were prepared with distilled water, ABA (95% active ingredient) is available from Lomon BioTechnology Co., Ltd. (Shichuan, China). […]
Unless otherwise specified, when a surfactant was employed, it was incorporated into the 250-ppm ABA treatment solution at a concentration of 0.05% to 0.5% (v/v).
ABA solutions and blank treatments were applied to the aerial parts of tomato plant leaves at the rate of 20 mL per 6 plants. Plants were then placed in a transparent chamber with humidity controlled within the range of 40 to 60% relative humidity. Leaf transpiration rates were measured at 1, 2 and 3 days; at 1, 2, 3 and 4 days; or at 1, 2, 3, 4 and 7 days after treatment. Measurements were conducted using a LI-1600 Steady State Porameter (LI-Cor, Lincoln, Nebr.). Each day the transpiration rate of the plants of each treatment group was normalized to the percentage of the transpiration rate of untreated plants (plants sprayed with water only) in order to control for day-to-day variability caused by changes of environmental conditions such as light intensity and temperature. In some cases, data of each plant was averaged over a 3-day period to balance the short term and long-term effect of ABA on tomato leaf transpiration as well as to control for experimental variability.
(§1) All experiments were conducted using a randomized complete block experimental design. Data were analyzed by analysis of variance. Duncan's new multiple range tests at α-005 were used for mean separations.

[2] = tested on: Crimson seedless grapes; assay: grape coloring field study, ABA with or without Latron B-1956; format: in vivo; settings: for Harvest yield (%): harvest at 64 days after treatment, yield percent with sufficient color
Protocol: (§2) A grape coloring field study was conducted at Caruthers, Calif., ABA alone at 100 or 200 ppm or its combination with 0.05% Latron B-1956 was foliar applied to Crimson seedless grapes. Number of clusters, with color was counted on a weekly basis, beginning at 21 days after treatment. Percentage of clusters with color was calculated. Grape yield was harvested at 64 days after treatment.
as §1
The effect of 0.05% Latron B-1956 on ABA (100 or 200 ppm) performance in grape coloration was examined (Table 15). Addition of Latron B-1956 increased the percent clusters with color for ABA at 100 or 200 ppm after application and increased the harvest yield percent with sufficient color. ABA at 200 ppm with or without Latron 13-1956 had more color and greater yield than at 100 ppm.

[3] = tested on: Crimson seedless grapes; assay: grape coloring field study, ABA with or without Brij 98; format: in vivo; settings: for Harvest yield (%): harvest at 64 days after treatment, yield percent with sufficient color
Protocol: as §2, with “Calif.” for “Calif.,”, “Brij 98” for “Latron B-1956”, “clusters” for “clusters,”
as §1
The effect of 0.05% Brij 98 on ABA (100 or 200 ppm) performance in grape coloration was examined in the field (Table 12). Addition of Brij 98 increased the percent of clusters with color for ABA at 100 or 200 ppm after application and increased the harvest yield percent with sufficient color. Treatment with 200 ppm ABA had more colored clusters and yield.

[4] = 250 ppm ABA or ABA ammonium salt, 1 day after treatment (Table 7)
[5] = 250 ppm ABA or ABA ammonium salt, 2 days after treatment (Table 7)
[6] = 250 ppm ABA or ABA ammonium salt, 3 days after treatment (Table 7)
[7] = 250 ppm ABA or ABA ammonium salt, average of days 1-3 after treatment (Table 7)
[8] = 250 ppm ABA or salt at rates equivalent to 250 ppm ABA, 1 day after treatment (Table 10)
[9] = 250 ppm ABA or salt at rates equivalent to 250 ppm ABA, 2 days after treatment (Table 10)
[10] = 250 ppm ABA or salt at rates equivalent to 250 ppm ABA, 3 days after treatment (Table 10)
[11] = 250 ppm ABA or salt at rates equivalent to 250 ppm ABA, average of days 1-3 (Table 10)
[12] = 100 ppm ABA foliar applied, 21 days after application
[13] = 100 ppm ABA foliar applied, 27 days after application
[14] = 100 ppm ABA foliar applied, 35 days after application
[15] = 100 ppm ABA foliar applied, 43 days after application
[16] = 100 ppm ABA foliar applied, 50 days after application
[17] = 100 ppm ABA foliar applied, 56 days after application
[18] = 100 ppm ABA foliar applied, 62 days after application
[19] = 100 ppm ABA foliar applied, 64 days after application
[20] = 200 ppm ABA foliar applied, 21 days after application
[21] = 200 ppm ABA foliar applied, 27 days after application
[22] = 200 ppm ABA foliar applied, 35 days after application
[23] = 200 ppm ABA foliar applied, 43 days after application
[24] = 200 ppm ABA foliar applied, 50 days after application
[25] = 200 ppm ABA foliar applied, 56 days after application
[26] = 200 ppm ABA foliar applied, 62 days after application
[27] = 200 ppm ABA foliar applied, 64 days after application

Molecule: CC1=CC(=O)CC(C)(C)[C@@]1(O)/C=C/C(C)=C\C(=O)O [ABA ammonium salt, Ammonium Salt of (S)-(+)-Abscisic Acid]
- Transpiration rate (% of control) [1, 4]: 68 % of control
- Transpiration rate (% of control) [1, 5]: 73 % of control
- Transpiration rate (% of control) [1, 6]: 84 % of control
- Transpiration rate (% of control), Average [1, 7]: 75 % of control
- Transpiration rate (% of control) [1, 8]: 58 % of control
- Transpiration rate (% of control) [1, 9]: 67 % of control
- Transpiration rate (% of control) [1, 10]: 78 % of control
- Transpiration rate (% of control), Average [1, 11]: 68 % of control

Molecule: (S)-5-(1-hydroxy-2,6,6,-trimethyl-4-oxo-2-cyclohexen-1-yl)-3-methyl-(2Z,4E)-pentadienoic acid [ABA]
- % clusters with color [2, 12]: 1.8%
- % clusters with color [2, 13]: 2.7%
- % clusters with color [2, 14]: 5.7%
- % clusters with color [2, 15]: 7.5%
- % clusters with color [2, 16]: 9.4%
- % clusters with color [2, 17]: 26.1%
- % clusters with color [2, 18]: 26.2%
- % clusters with color [2, 19]: 31.2%
- Harvest yield (%) ([2]; 100 ppm ABA foliar applied): 25.5%
- % clusters with color [2, 20]: 7.0%
- % clusters with color [2, 21]: 10.7%
- % clusters with color [2, 22]: 17.3%
- % clusters with color [2, 23]: 20.5%
- % clusters with color [2, 24]: 22.7%
- % clusters with color [2, 25]: 47.9%
- % clusters with color [2, 26]: 50.3%
- % clusters with color [2, 27]: 56.4%
- Harvest yield (%) ([2]; 200 ppm ABA foliar applied): 49.1%
- Transpiration rate (% of control) ([1]; 125 ppm ABA, average of first 3 days after treatment): 96 % of control
- Transpiration rate (% of control) [1, 4]: 73 % of control
- Transpiration rate (% of control) [1, 5]: 76 % of control
- Transpiration rate (% of control) [1, 6]: 94 % of control
- Transpiration rate (% of control), Average [1, 7]: 81 % of control
- Transpiration rate (% of control) ([1]; 250 ppm ABA or salt at rate equivalent to 250 ppm ABA, 1 day after treatment (Table 8)): 71 % of control
- Transpiration rate (% of control) ([1]; 250 ppm ABA or salt at rate equivalent to 250 ppm ABA, 2 days after treatment (Table 8)): 75 % of control
- Transpiration rate (% of control) ([1]; 250 ppm ABA or salt at rate equivalent to 250 ppm ABA, 3 days after treatment (Table 8)): 88 % of control
- Transpiration rate (% of control), Average ([1]; 250 ppm ABA or salt at rate equivalent to 250 ppm ABA, average of days 1-3 (Table 8)): 78 % of control
- Transpiration rate (% of control) [1, 8]: 59 % of control
- Transpiration rate (% of control) [1, 9]: 71 % of control
- Transpiration rate (% of control) [1, 10]: 77 % of control
- Transpiration rate (% of control), Average [1, 11]: 69 % of control
- Transpiration rate (% of control) ([1]; 250 ppm ABA, 1 day after treatment (Table 2)): 76 % of control
- Transpiration rate (% of control) ([1]; 250 ppm ABA, 1 day after treatment (Table 5)): 82 % of control
- Transpiration rate (% of control) ([1]; 250 ppm ABA, 1 day after treatment (Table 6)): 71 % of control
- Transpiration rate (% of control) ([1]; 250 ppm ABA, 1 day after treatment (Table 11)): 83 % of control
- Transpiration rate (% of control) ([1]; 250 ppm ABA, 1 day after treatment (Table 13)): 74 % of control
- Transpiration rate (% of control) ([1]; 250 ppm ABA, 1 day after treatment (Table 14)): 74 % of control
- Transpiration rate (% of control) ([1]; 250 ppm ABA, 2 days after treatment (Table 2)): 99 % of control
- Transpiration rate (% of control) ([1]; 250 ppm ABA, 2 days after treatment (Table 5)): 91 % of control
- Transpiration rate (% of control) ([1]; 250 ppm ABA, 2 days after treatment (Table 6)): 84 % of control
- Transpiration rate (% of control) ([1]; 250 ppm ABA, 2 days after treatment (Table 11)): 85 % of control
- Transpiration rate (% of control) ([1]; 250 ppm ABA, 2 days after treatment (Table 14)): 82 % of control
- Transpiration rate (% of control) ([1]; 250 ppm ABA, 3 days after treatment (Table 2)): 93 % of control
- Transpiration rate (% of control) ([1]; 250 ppm ABA, 3 days after treatment (Table 5)): 90 % of control
- Transpiration rate (% of control) ([1]; 250 ppm ABA, 3 days after treatment (Table 6)): 86 % of control
- Transpiration rate (% of control) ([1]; 250 ppm ABA, 3 days after treatment (Table 11)): 94 % of control
- Transpiration rate (% of control) ([1]; 250 ppm ABA, 3 days after treatment (Table 13)): 95 % of control
- Transpiration rate (% of control) ([1]; 250 ppm ABA, 3 days after treatment (Table 14)): 95 % of control
- Transpiration rate (% of control) ([1]; 250 ppm ABA, 4 days after treatment (Table 5)): 100 % of control
- Transpiration rate (% of control) ([1]; 250 ppm ABA, 4 days after treatment (Table 6)): 90 % of control
- Transpiration rate (% of control) ([1]; 250 ppm ABA, 4 days after treatment (Table 13)): 100 % of control
- Transpiration rate (% of control) ([1]; 250 ppm ABA, 4 days after treatment (Table 14)): 100 % of control
- Transpiration rate (% of control), Average ([1]; 250 ppm ABA, average of days 1-3 (Table 11)): 87 % of control
- Transpiration rate (% of control) ([1]; 250 ppm ABA, average of first 3 days after treatment (Table 1)): 88 % of control
- Transpiration rate (% of control) ([1]; 250 ppm ABA, average of first 3 days after treatment (Table 3)): 83 % of control
- Transpiration rate (% of control) ([1]; 250 ppm ABA, average of first 3 days after treatment (Table 4)): 96.32 % of control
- Transpiration rate (% of control) ([1]; 250 ppm ABA, average of first 3 days after treatment (Table 9)): 73 % of control
- Transpiration rate (% of control) ([1]; 500 ppm ABA, average of first 3 days after treatment): 74 % of control
- Transpiration rate (% of control) ([1]; 1000 ppm ABA, average of first 3 days after treatment): 68 % of control
- ABA concentrations to achieve 50% inhibition of transpiration ([1]; calculated from linear regression of relative transpiration (3-day average) on log10 ABA concentration): 3328 ppm
- % clusters with color [3, 12]: 1.8%
- % clusters with color [3, 13]: 2.7%
- % clusters with color [3, 14]: 5.7%
- % clusters with color [3, 15]: 7.5%
- % clusters with color [3, 16]: 9.4%
- % clusters with color [3, 17]: 26.1%
- % clusters with color [3, 18]: 26.2%
- % clusters with color [3, 19]: 31.2%
- Harvest yield (%) ([3]; 100 ppm ABA foliar applied): 25.5%
- % clusters with color [3, 20]: 7.0%
- % clusters with color [3, 21]: 10.7%
- % clusters with color [3, 22]: 17.3%
- % clusters with color [3, 23]: 20.5%
- % clusters with color [3, 24]: 22.7%
- % clusters with color [3, 25]: 47.9%
- % clusters with color [3, 26]: 50.3%
- % clusters with color [3, 27]: 56.4%
- Harvest yield (%) ([3]; 200 ppm ABA foliar applied): 49.1%
